Assay results published in patent US20250179066A1, “ZWITTERIONIC ANTIBACTERIAL COMPOUNDS” (Hoffmann-La Roche Inc., priority 2022, published 2025).
Counter-ions that a name gives are not always drawn.

What follows are compounds tested on Acinetobacter baumannii ATCC17961 (assay: Antimicrobial susceptibility testing: 90% growth inhibitory concentration (IC90) determination). Details: Acinetobacter baumannii, ATCC17961, 16 h, 90% growth inhibitory concentration against Acinetobacter baumannii ATCC17961, Iso-Sensitest broth, OD 600 nm over 16 h; read-out: ATCC 17961 IC90.
Assay type: cell-based
Method in brief: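 OD600 monitored each minute over 16 h at 35±2° C for bacteria (~5×10^5 CFU/mL final) in Iso-Sensitest medium with 10-point twofold compound series (e.g. 10-0.0195 μM final). Concentration giving 90% growth inhibition in log phase reported as IC90.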

Compound	IC90
Cn1c(-c2cn(-c3ccc(O)cc3F)nc2C(F)(F)F)cnc1C(=O)Nc1ccc(C(=O)N2CCN(C(=O)[C@H]3CC[N@+](CC(=O)O)(CC4CNC4)CC3)CC2)c(Cl)c1 [Example 163, cis-2-[1-(azetidin-3-ylmethyl)-4-[4-[2-chloro-4-[[5-[1-(2-fluoro-4-hydroxy-phenyl)-3-(trifluoromethyl)pyrazol-4-yl]-1-methyl-imidazole-3-carbonyl]amino]benzoyl]piperazine-1-carbonyl]piperidin-1-ium-1-yl]acetic acid. 1:1 2,2,2-trifluoroacetate]	190 nM
Cn1c(-c2cn(-c3ccc(NCC(C)(C)O)cc3F)nc2C(F)(F)F)cnc1C(=O)Nc1ccc(C(=O)N2CCN(C(=O)[C@H]3CC[N@+](CC(=O)O)(CC4CNC4)CC3)CC2)c(Cl)c1 [Example 164, cis-2-[1-(azetidin-3-ylmethyl)-4-[4-[2-chloro-4-[[5-[1-[2-fluoro-4-[(2-hydroxy-2-methyl-propyl)amino]phenyl]-3-(trifluoromethyl)pyrazol-4-yl]-1-methyl-imidazole-2-carbonyl]amino]benzoyl]piperazine-1-carbonyl]piperidin-1-ium-1-yl]acetic acid;formate]	163 nM
Cn1c(-c2cn(-c3ncc4[nH]ccc4n3)nc2C(F)(F)F)cnc1C(=O)Nc1ccc(C(=O)N2CCN(C(=O)[C@H]3CC[N@+](CC(=O)O)(CC4CNC4)CC3)CC2)c(Cl)c1 [Example 165, cis-2-[1-(azetidin-3-ylmethyl)-4-[4-[2-chloro-4-[[1-methyl-5-[1-(5H-pyrrolo[3,2-d]pyrimidin-2-yl)-3-(trifluoromethyl)pyrazol-4-yl]imidazole-2-carbonyl]amino]benzoyl]piperazine-1-carbonyl]piperidin-1-ium-1-yl]acetic acid;formate]	649 nM
Cn1c(-c2cn(-c3ccc(NCCN(CCN)CCN)cn3)nc2C(F)(F)F)cnc1C(=O)Nc1ccc(C(=O)N2CCN(C(=O)C3CC[N+](CC(=O)O)(CC4CNC4)CC3)CC2)c(Cl)c1 (stereo not drawn) [Example 166, cis-2-[1-(azetidin-3-ylmethyl)-4-[4-[4-[[5-[1-[5-[2-[bis(2-aminoethyl)amino]ethylamino]-2-pyridyl]-3-(trifluoromethyl)pyrazol-4-yl]-1-methyl-imidazole-2-carbonyl]amino]-2-chloro-benzoyl]piperazine-1-carbonyl]piperidin-1-ium-1-yl]acetic acid;formic acid;formate]	152 nM
Cn1c(-c2cn(-c3ccc4[nH]c(CC(N)=O)cc4n3)nc2C(F)(F)F)cnc1C(=O)Nc1ccc(C(=O)N2CCN(C(=O)[C@H]3CC[N@+](CC(=O)O)(CC4CNC4)CC3)CC2)c(Cl)c1 [Example 167, cis-2-[4-[4-[4-[[5-[1-[2-(2-amino-2-oxo-ethyl)-1H-pyrrolo[3,2-b]pyridin-5-yl]-3-(trifluoromethyl)pyrazol-4-yl]-1-methyl-imidazole-2-carbonyl]amino]-2-chloro-benzoyl]piperazine-1-carbonyl]-1-(azetidin-3-ylmethyl)piperidin-1-ium-1-yl]acetic acid;2,2,2-trifluoroacetate]	715 nM
Cn1c(-c2cn(-c3cc4c(ccn4CC(N)=O)cn3)nc2C(F)(F)F)cnc1C(=O)Nc1ccc(C(=O)N2CCN(C(=O)[C@H]3CC[N@+](CC(=O)O)(CC4CNC4)CC3)CC2)c(Cl)c1 [Example 168, cis-2-[4-[4-[4-[[5-[1-[1-(2-amino-2-keto-ethyl)pyrrolo[3,2-c]pyridin-6-yl]-3-(trifluoromethyl)pyrazol-4-yl]-1-methyl-imidazole-2-carbonyl]amino]-2-chloro-benzoyl]piperazine-1-carbonyl]-1-(azetidin-3-ylmethyl)piperidin-1-ium-1-yl]acetic Acid.1:1 2,2,2-trifluoroacetate]	555 nM
Cn1c(-c2cn(-c3ccc4c(cc(CO)n4CC#N)n3)nc2C(F)(F)F)cnc1C(=O)Nc1ccc(C(=O)N2CCN(C(=O)[C@H]3CC[N@+](CC(=O)O)(CC4CNC4)CC3)CC2)c(Cl)c1 [Example 169, cis-2-[1-(azetidin-3-ylmethyl)-4-[4-[2-chloro-4-[[5-[1-[1-(cyanomethyl)-2-methylol-pyrrolo[3,2-b]pyridin-5-yl]-3-(trifluoromethyl)pyrazol-4-yl]-1-methyl-imidazole-2-carbonyl]amino]benzoyl]piperazine-1-carbonyl]piperidin-1-ium-1-yl]acetic acid. 1:1 2,2,2-trifluoroacetate]	466 nM
Cn1c(-c2cn(-c3ccc(N)cc3F)nc2C(F)(F)F)cnc1C(=O)Nc1ccc(C(=O)N2CCN(C(=O)[C@H]3CC[N@@+](CCCN)(CC(=O)O)CC3)CC2)c(Cl)c1 [Example 170, cis-2-[4-[4-[4-[[5-[1-(4-amino-2-fluoro-phenyl)-3-(trifluoromethyl)pyrazol-4-yl]-1-methyl-imidazole-2-carbonyl]amino]-2-chloro-benzoyl]piperazine-1-carbonyl]-1-(3-aminopropyl)piperidin-1-ium-1-yl]acetic acid. 1:1 2,2,2-trifluoroacetate]	199 nM
Cn1c(-c2cn(-c3ccc4[nH]c(CO)cc4n3)nc2C(F)(F)F)cnc1C(=O)Nc1ccc(C(=O)N2CCN(C(=O)[C@H]3CC[N@@+](CCCN)(CC(=O)O)CC3)CC2)c(Cl)c1 [Example 171, cis-2-[1-(3-aminopropyl)-4-[4-[2-chloro-4-[[1-methyl-5-[1-(2-methylol-1H-pyrrolo[3,2-b]pyridin-5-yl)-3-(trifluoromethyl)pyrazol-4-yl]imidazole-2-carbonyl]amino]benzoyl]piperazine-1-carbonyl]piperidin-1-ium-1-yl]acetic acid. 1:1 2,2,2-trifluoroacetate]	281 nM
CN(C)C(=O)c1c[nH]c2cc(-n3cc(-c4cnc(C(=O)Nc5ccc(C(=O)N6CCN(C(=O)[C@H]7CC[N@+](CC(=O)O)(CC8CNC8)CC7)CC6)c(Cl)c5)n4C)c(C(F)(F)F)n3)ncc12 [Example 172, cis-2-[1-(azetidin-3-ylmethyl)-4-[4-[2-chloro-4-[[5-[1-[3-(dimethylcarbamoyl)-1H-pyrrolo[3,2-c]pyridin-6-yl]-3-(trifluoromethyl)pyrazol-4-yl]-1-methyl-imidazole-2-carbonyl]amino]benzoyl]piperazine-1-carbonyl]piperidin-1-ium-1-yl]acetic acid. 1:1 2,2,2-trifluoroacetate]	194 nM
Cn1c(-c2cn(-c3cc4[nH]ncc4cn3)nc2C(F)(F)F)cnc1C(=O)Nc1ccc(C(=O)N2CCN(C(=O)[C@H]3CC[N@+](CC(=O)O)(CC4CNC4)CC3)CC2)c(Cl)c1 [Example 173, cis-2-[1-(azetidin-3-ylmethyl)-4-[4-[2-chloro-4-[[1-methyl-5-[1-(1H-pyrazolo[4,3-c]pyridin-6-yl)-3-(trifluoromethyl)pyrazol-4-yl]imidazole-2-carbonyl]amino]benzoyl]piperazine-1-carbonyl]piperidin-1-ium-1-yl]acetic acid. 1:1 2,2,2-trifluoroacetate]	352 nM
Cn1c(-c2cn(-c3cc4c(ccn4CCO)cn3)nc2C(F)(F)F)cnc1C(=O)Nc1ccc(C(=O)N2CCN(C(=O)[C@H]3CC[N@+](CC(=O)O)(CC4CNC4)CC3)CC2)c(Cl)c1 [Example 174, cis-2-[1-(azetidin-3-ylmethyl)-4-[4-[2-chloro-4-[[5-[1-[1-(2-hydroxyethyl)pyrrolo[3,2-c]pyridin-6-yl]-3-(trifluoromethyl)pyrazol-4-yl]-1-methyl-imidazole-2-carbonyl]amino]benzoyl]piperazine-1-carbonyl]piperidin-1-ium-1-yl]acetic acid. 1:1 2,2,2-trifluoroacetate]	430 nM
CNc1ccc(-n2cc(-c3cnc(C(=O)Nc4ccc(C(=O)N5CCN(C(=O)[C@H]6CC[N@+](CC(=O)O)(CC7CNC7)CC6)CC5)c(Cl)c4)n3C)c(C(F)(F)F)n2)c(F)c1 [Example 176, cis-2-[1-(azetidin-3-ylmethyl)-4-[4-[2-chloro-4-[[5-[1-[2-fluoro-4-(methylamino)phenyl]-3-(trifluoromethyl)pyrazol-4-yl]-1-methyl-imidazole-2-carbonyl]amino]benzoyl]piperazine-1-carbonyl]piperidin-1-ium-1-yl]acetic acid. 1:1 formate]	88.1 nM
Cn1c(-c2cn(-c3cc4[nH]cc(C(=O)N5CCOCC5)c4cn3)nc2C(F)(F)F)cnc1C(=O)Nc1ccc(C(=O)N2CCN(C(=O)[C@H]3CC[N@+](CC(=O)O)(CC4CNC4)CC3)CC2)c(Cl)c1 [Example 177, cis-2-[1-(azetidin-3-ylmethyl)-4-[4-[2-chloro-4-[[1-methyl-5-[1-[3-(morpholine-4-carbonyl)-1H-pyrrolo[3,2-c]pyridin-6-yl]-3-(trifluoromethyl)pyrazol-4-yl]imidazole-2-carbonyl]amino]benzoyl]piperazine-1-carbonyl]piperidin-1-ium-1-yl]acetic acid. 1:1 2,2,2-trifluoroacetate]	201 nM
Cn1c(-c2cn(-c3ccc(NCCO)cc3F)nc2C(F)(F)F)cnc1C(=O)Nc1ccc(C(=O)N2CCN(C(=O)[C@H]3CC[N@+](CC(=O)O)(CC4CNC4)CC3)CC2)c(Cl)c1 [Example 178, cis-2-[1-(azetidin-3-ylmethyl)-4-[4-[2-chloro-4-[[5-[1-[2-fluoro-4-(2-hydroxyethylamino)phenyl]-3-(trifluoromethyl)pyrazol-4-yl]-1-methyl-imidazole-2-carbonyl]amino]benzoyl]piperazine-1-carbonyl]piperidin-1-ium-1-yl]acetic acid. 1:1 formate]	135 nM
Cn1c(-c2cn(-c3cc4[nH]cc(C(=O)N5CCC(F)(F)CC5)c4cn3)nc2C(F)(F)F)cnc1C(=O)Nc1ccc(C(=O)N2CCN(C(=O)[C@H]3CC[N@+](CC(=O)O)(CC4CNC4)CC3)CC2)c(Cl)c1 [Example 179, cis-2-[1-(azetidin-3-ylmethyl)-4-[4-[2-chloro-4-[[5-[1-[3-(4,4-difluoropiperidine-1-carbonyl)-1H-pyrrolo[3,2-c]pyridin-6-yl]-3-(trifluoromethyl)pyrazol-4-yl]-1-methyl-imidazole-2-carbonyl]amino]benzoyl]piperazine-1-carbonyl]piperidin-1-ium-1-yl]acetic acid. 1:1 2,2,2-trifluoroacetate]	95.8 nM
